For data set [1], the target named is Syk-EGFP (Mus musculus, UniProt P48025). The data set can be described thus: Terbium time-resolved luminescence dose-response inhibition assay with SAStide. Format: biochemical. To be noted: SAStide 37.5 μM, 30 min, Tb3+ luminescence, read-out: observed IC50.
The target of data set [2] is T1, Bcr-Abl (Homo sapiens, UniProt P00519). The data set can be described thus: Cell-based Bcr-Abl biosensor assay in K562 cells, Western blot. (In general: A western blot detects proteins with antibodies after separation by electrophoresis.)
Data set [3] deals with K562 cells. The data set can be described thus: Intracellular degradation of biosensor peptide in K562 cells, MALDI-TOF/TOF. To be noted: 5 min exposure.
For data set [4], the system named is peripheral T-cell lymphomas (PTCLs). As to conditions: PTCL cells; cited from earlier work.
The target in data set [5] is T1, Bcr-Abl. The data set can be described thus: Cell-based Bcr-Abl biosensor assay in K562 cells, MRM mass spectrometry. Also noted: endogenous in cells; host or cells: K562 cells; the other entry of the earlier key: BCR (P11274, Breakpoint cluster region protein). To be noted: 5 min, 1 μg lysate.
The target of data set [6] is T2, Abl (Homo sapiens, UniProt P00519). The experiment in a line: ABStide specificity in vitro kinase assay (terbium luminescence, confirmed by ELISA). Format: biochemical. To be noted: terbium-sensitized luminescence. The protocol: Terbium based in vitro kinase assays. Recombinant kinases were incubated with the kinase reaction buffer (15 nM kinase, 100 μM ATP, 10 mM MgCl2, 125 ng/μL BSA and 25 mM HEPES pH 7.5, total volume 180 μL) containing 12.5 μM biosensor at 30° C. Aliquots (20 μL) were taken at designated time points (0.5, 5, 10, 15, 30, 45 and 60 min) and quenched in 6 M urea (20 μL). The quenched samples were then treated with the luminescence buffer (500 μM Tb^3+ and 500 mM NaCl, 10 μL) for a total volume of 50 μL (final concentrations of sample components: 2.4 M urea, 40 μM ATP, 4 mM MgCl2, 50 ng/μL BSA and 10 mM HEPES pH 7.5). Luminescence emission spectra were collected as described above and the area under each spectrum was integrated using GraphPad Prism. An additional aliquot (2 μL) of the kinase reaction mixture was taken at each time point for validation of phosphorylation using an ELISA-based chemifluorescent assay as previously described. Briefly, each aliquot was quenched with 0.5 M EDTA and incubated in a 96-well Neutravidin coated plate (15 pmol biotin binding capacity per well, Thermo Scientific) in Tris-buffer saline (TBS) containing 0.1% BSA and 0.05% Tween 20 for 1 h. […] Fluorescence was measured using a Synergy4 multiwell plate reader (Biotek) with an excitation wavelength of 532 nm and emission wavelength of 590 nm.
In general terms: In an ELISA, binding on a coated surface is turned into a signal by an enzyme label.

The nature of data set [7]: Tb3+ binding affinity and stoichiometry by sensitized luminescence.
Data set [8] has as its target Lyn (Homo sapiens, UniProt P07948). The experiment in a line: In vitro kinase assay, ELISA-based detection of peptide phosphorylation. As to conditions: ELISA read-out. Format: biochemical. The protocol:
(§1) In vitro kinase assay. Recombinant Abl, Src and Lyn enzymes were obtained from a commercial source (Millipore). EGFP-conjugated Syk was isolated from DT40 chicken B cells stably expressing Syk-EGFP. GFP-conjugated Lck was isolated from Jurkat cells stably expressing Lck-EGFP. Cells were lysed using a solution containing 1% Nonidet P-40, 50 mM Tris-HCl pH 8.0, 100 mM NaCl, 5 mM EDTA, 1 mM sodium orthovanadate, 2 mM NaF and 1× mammalian protease inhibitor cocktail (Sigma). Syk- and Lck-EGFP were immunoprecipitated using GFP-Trap_A beads (Chromotek) or anti-GFP magnetic nanoparticle beads (MBL, Japan). Lysates were incubated with the beads for 1 h at 4° C. The kinase-bound beads were washed and then used in the in vitro kinase assay. Syk-EGFP, Lck-EGFP, or purified Abl or Src kinase (0.1 U) were incubated with kinase reaction buffer (500 μM ATP, 5 mM MnCl2, HEPES, pH 7.2) containing the peptide substrate at 25 μM. Aliquots (22 μL) were taken at designated time points and quenched in 0.5 M EDTA, pH 8.5 (22 μL). The quenched sample (1 μL) was diluted into ELISA-based detection wash buffer and analyzed as described below. For substrate comparison assays, kinase reaction conditions were as described above except that substrate concentrations were 4 μM, and concentration of enzyme used per reaction was 6 nM. The volume of aliquots diluted in an equal volume of quench buffer was 4 μl (for 8 μl total quenched volume), and the entire quenched amount was diluted into ELISA wash buffer and analyzed as described below.
(§2) ELISA-based fluorescence detection. Samples were incubated in a 96-well Neutravidin™ coated plate (Thermo Scientific) in Tris-buffered saline (TBS) containing 0.1% BSA and 0.05% Tween 20 for 1 h at room temperature on a short-radius plate shaker (600 rpm). Following incubation, wells were washed three times with wash buffer (TBS, 0.1% BSA, 0.05% Tween 20), then incubated with mouse anti-phosphotyrosine monoclonal antibody 4G10 (1:5000 dilution in wash buffer, 100 μL per well) for 1 h at room temperature with shaking. Wells were washed three times with wash buffer and incubated with horseradish peroxidase-conjugated goat anti-mouse immunoglobulin G (IgG) secondary antibody (Abcam) (1:1000 dilution in the wash buffer, 100 μL per well) for 1 h at room temperature with shaking. Wells were then washed three times with wash buffer and twice with sodium phosphate buffer (0.05 M, pH 7.5). For chemifluorescence detection, Amplex Red™ reaction buffer (100 μL total volume/well) consisting of Amplex Red™ reagent (50 μL) (Invitrogen), 20 mM H2O2 (500 μL) and sodium phosphate buffer (4500 μL) and allowed to react for 30 min. Fluorescence of Amplex Red™ was measure using a Synergy4 multiwell plate reader (Biotek) with an excitation wavelength of 532 nm and emission wavelength of 590 nm.

For data set [9], the target named is T3, Syk (Mus musculus, UniProt P48025).
T3 construct: made in house; host or cells: DT40 chicken B cells (Syk-deficient, reconstituted with Syk-EGFP)
The data set is described as above. Format: biochemical. As to conditions: ELISA read-out. As to the method:
as §1, §2

Data set [10] has as its target T2, Abl. The description is as above. Format: biochemical. As to conditions: ELISA read-out. As to the method: as §1, §2
Data set [11] addresses Src (Homo sapiens, UniProt P12931). Described as above. Format: biochemical. To be noted: ELISA read-out. As to the method: as §1, §2
Data set [12] has as its system DG75 and DT40 B cell lines. The data set can be described thus: Toxicity of SAStide biosensor peptide in the cell-based assay. As to conditions: peptide at 25 μM. The protocol: Cell culture and biological reagents. The DG75 and DT40 B cell lines were grown to a density of 0.4×10^6 cells/mL in RPMI-1640 medium containing 7.5% FBS, 1 mM sodium pyruvate, 100 IU/mL penicillin, 100 μg/mL streptomycin and 50 μM 2-metcaptoethanol. Additionally, DT40 cell medium contained 1% chicken serum. Anti-chicken IgM and anti-mouse IgM F(ab′)2 fragments were purchased from Bethyl Laboratories. Anti-human IgM was purchased from Rockland Immunochemicals. Hydrogen peroxide was purchased from Mallinckrodt. Anti-Syk (N-19) was purchased from Santa Cruz Biotechnology. Anti-tubulin and anti-phosphotyrosine (4G10) were purchased from Millipore. Anti-phospho Syk (Y525/526) was purchased from Cell SignalingTechnology.
Cell-Based peptide SAStide biosensor assay. […] Aliquots of the cell suspension (1 mL) were harvested, lysed in PhosphoSafe Extraction Reagent (EMD Millipore) containing 167 mM EDTA and freshly prepared protease inhibitor cocktail (Roche) and flash frozen. Half the cell lysate from each sample was used for ELISA-based fluorescence detection and the other for immunoblotting. For dose-response experiments, cells were stimulated with varying concentrations of anti-IgM (2.5-10 μg/mL) or hydrogen peroxide (1-7 mM), harvested at 5 min post-stimulation and processed as described above. For immunoblotting, membranes were blocked in 5% goat serum for 1 h. […]

Setting [13] is: 1 μM peptide, Tb3+ 0-50 μM, read-out: Kd of peptide:terbium complex.

Like-named read-outs stand apart in the source and are kept apart here. *1 amine or outer side, *2 acyl side, *3 side chain or, on linkers, in order; H or OH if unused. Where no end group is shown, it is not given here. [ ]: non-standard residue; d: D form. The star is where a group is joined. ξ: configuration not given here. ξβ3hPhg(2-NO2) = O=C(CC(N[*:1])c1ccccc1[N+](=O)[O-])[*:2]; Biotin = O=C1N[C@H]2[C@H](CS[C@H]2CCCCC(=O)*)N1

We go through nine molecules from patent US10150984B2, “Tyrosine kinase biosensors and methods of use” (Purdue Research Foundation, priority 2012, dated 2018).

T2 sequence (P00519 whole entry, species assumed): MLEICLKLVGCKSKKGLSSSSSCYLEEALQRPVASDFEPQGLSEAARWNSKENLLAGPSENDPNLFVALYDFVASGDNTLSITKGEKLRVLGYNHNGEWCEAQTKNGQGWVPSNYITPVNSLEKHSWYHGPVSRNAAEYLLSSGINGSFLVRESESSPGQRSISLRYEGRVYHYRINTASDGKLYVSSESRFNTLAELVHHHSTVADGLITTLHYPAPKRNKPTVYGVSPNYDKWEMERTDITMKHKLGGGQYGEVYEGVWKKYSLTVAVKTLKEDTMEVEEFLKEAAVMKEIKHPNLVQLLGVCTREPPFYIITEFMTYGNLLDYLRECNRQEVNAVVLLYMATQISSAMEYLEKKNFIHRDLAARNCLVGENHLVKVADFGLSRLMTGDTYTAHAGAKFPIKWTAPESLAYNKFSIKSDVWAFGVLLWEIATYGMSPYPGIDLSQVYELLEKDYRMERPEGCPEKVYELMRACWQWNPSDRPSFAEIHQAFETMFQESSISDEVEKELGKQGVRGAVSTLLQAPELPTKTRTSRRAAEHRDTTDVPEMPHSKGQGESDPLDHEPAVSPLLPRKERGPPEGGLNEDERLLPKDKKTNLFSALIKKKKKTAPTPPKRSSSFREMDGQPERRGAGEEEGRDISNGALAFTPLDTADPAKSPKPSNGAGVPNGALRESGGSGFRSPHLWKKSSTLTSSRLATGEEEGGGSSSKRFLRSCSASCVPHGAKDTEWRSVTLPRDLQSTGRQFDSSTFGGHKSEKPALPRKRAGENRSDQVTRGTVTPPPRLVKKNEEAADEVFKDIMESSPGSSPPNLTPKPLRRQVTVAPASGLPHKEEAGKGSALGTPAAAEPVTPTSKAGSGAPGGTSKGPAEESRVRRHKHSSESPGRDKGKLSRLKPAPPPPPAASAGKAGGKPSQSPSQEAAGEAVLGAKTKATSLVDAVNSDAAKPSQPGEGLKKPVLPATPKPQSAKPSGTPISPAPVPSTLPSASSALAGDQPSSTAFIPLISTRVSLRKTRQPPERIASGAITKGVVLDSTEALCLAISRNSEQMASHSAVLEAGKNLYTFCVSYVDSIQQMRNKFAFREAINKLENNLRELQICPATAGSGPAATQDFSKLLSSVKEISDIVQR
T1 sequence (P00519 with tags, fused parts or gaps): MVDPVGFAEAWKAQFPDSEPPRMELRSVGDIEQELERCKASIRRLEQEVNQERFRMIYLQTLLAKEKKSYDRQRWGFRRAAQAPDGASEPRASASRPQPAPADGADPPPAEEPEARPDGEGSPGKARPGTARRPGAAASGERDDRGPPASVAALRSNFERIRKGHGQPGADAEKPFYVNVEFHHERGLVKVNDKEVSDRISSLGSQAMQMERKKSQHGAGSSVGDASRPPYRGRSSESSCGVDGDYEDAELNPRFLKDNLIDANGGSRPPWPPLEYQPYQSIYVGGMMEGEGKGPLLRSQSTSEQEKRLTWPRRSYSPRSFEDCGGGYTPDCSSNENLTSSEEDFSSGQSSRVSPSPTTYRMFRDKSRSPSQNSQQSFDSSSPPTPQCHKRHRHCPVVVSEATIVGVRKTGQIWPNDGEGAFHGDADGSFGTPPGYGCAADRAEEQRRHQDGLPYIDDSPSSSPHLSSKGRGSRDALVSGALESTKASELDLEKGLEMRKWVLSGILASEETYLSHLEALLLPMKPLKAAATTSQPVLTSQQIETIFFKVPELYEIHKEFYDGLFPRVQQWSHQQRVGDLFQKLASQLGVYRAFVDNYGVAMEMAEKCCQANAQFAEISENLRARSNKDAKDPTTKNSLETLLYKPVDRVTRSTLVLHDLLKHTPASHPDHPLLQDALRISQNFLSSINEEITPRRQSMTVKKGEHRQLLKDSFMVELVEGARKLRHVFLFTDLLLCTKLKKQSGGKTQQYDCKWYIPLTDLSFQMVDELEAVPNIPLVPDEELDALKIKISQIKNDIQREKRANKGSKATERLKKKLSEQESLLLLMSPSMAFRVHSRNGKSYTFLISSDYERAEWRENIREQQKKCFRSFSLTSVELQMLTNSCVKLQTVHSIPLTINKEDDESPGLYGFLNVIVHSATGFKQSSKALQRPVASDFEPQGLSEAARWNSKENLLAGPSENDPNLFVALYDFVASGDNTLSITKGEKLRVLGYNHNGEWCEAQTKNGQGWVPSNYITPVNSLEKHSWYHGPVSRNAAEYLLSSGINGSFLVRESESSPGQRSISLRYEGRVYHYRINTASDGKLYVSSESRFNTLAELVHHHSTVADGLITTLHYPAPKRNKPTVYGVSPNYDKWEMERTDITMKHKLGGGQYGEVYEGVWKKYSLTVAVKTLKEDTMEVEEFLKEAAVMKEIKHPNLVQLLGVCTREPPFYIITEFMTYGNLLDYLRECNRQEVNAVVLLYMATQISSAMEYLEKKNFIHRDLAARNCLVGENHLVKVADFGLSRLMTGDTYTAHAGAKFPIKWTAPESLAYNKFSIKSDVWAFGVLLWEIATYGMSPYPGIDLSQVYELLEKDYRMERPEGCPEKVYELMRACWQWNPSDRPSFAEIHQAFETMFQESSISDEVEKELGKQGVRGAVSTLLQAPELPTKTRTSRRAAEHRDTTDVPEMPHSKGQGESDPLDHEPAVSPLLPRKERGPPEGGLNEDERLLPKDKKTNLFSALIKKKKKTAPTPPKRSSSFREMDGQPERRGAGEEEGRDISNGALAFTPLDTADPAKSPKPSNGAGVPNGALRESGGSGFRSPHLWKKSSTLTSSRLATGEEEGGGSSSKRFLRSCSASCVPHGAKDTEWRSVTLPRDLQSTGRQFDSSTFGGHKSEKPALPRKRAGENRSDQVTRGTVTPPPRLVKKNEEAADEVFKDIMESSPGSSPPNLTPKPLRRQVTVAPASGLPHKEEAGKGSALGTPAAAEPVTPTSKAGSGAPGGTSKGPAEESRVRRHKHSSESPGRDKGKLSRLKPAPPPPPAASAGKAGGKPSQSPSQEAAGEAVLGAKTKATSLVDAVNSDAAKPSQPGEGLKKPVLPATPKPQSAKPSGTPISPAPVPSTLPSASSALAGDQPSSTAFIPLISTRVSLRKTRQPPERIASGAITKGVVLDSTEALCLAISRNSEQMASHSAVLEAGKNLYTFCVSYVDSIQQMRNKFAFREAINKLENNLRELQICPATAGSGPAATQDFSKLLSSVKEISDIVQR
Chain of Lyn (P07948 whole entry, species assumed): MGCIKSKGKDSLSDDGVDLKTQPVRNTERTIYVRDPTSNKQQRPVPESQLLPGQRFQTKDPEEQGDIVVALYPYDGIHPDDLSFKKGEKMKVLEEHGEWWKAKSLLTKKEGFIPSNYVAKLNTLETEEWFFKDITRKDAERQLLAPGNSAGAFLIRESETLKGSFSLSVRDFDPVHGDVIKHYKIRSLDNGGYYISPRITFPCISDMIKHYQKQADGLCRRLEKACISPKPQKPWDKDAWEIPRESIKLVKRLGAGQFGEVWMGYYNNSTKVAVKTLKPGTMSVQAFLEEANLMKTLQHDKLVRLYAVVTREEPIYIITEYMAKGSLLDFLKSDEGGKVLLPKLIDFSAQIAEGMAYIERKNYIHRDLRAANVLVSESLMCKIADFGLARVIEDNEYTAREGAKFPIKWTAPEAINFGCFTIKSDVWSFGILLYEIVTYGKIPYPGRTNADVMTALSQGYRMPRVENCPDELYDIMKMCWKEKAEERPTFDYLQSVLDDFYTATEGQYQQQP
T3 sequence (P48025 whole entry): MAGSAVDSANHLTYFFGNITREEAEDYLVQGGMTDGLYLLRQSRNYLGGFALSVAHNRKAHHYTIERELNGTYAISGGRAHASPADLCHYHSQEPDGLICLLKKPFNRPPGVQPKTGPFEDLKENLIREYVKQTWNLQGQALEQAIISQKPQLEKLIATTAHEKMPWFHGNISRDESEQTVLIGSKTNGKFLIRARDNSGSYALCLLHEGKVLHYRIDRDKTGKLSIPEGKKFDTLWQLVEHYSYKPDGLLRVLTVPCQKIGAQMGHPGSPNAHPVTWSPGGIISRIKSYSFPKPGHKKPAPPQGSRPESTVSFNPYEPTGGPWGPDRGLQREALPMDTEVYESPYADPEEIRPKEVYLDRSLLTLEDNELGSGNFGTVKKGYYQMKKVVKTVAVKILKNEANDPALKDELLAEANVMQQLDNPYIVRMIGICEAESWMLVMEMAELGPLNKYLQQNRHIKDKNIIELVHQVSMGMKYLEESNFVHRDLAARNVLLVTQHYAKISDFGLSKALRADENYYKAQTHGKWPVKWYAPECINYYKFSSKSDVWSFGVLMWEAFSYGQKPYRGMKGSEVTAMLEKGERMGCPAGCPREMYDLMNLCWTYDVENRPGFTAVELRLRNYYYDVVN
Chain of Syk-EGFP (P48025 whole entry): as above

By IC50 is commonly meant the concentration that inhibits the measured activity by half. Take `Oc1cc(O)cc(/C=C/c2ccc(O)c(O)c2)c1` [piceatannol]: in [1], the IC50 amounted to 178 ± 1.4 µM.
For “EAIYAAPFAKKK(Biotin)G[ξβ3hPhg(2-NO2)]GCGGAPTYSPPPPPGGRKKRRQRRRLL [Abl biosensor]”, the “uptake into K562 cells” value in [2] (25 μM peptide) is recorded as “readily taken up”. Further, the “intact peptide after exposure to cells” value in [3] is recorded as “essentially no intact peptide was observed”.
`COc1cc(Nc2ncc(F)c(Nc3ccc4c(n3)NC(=O)C(C)(C)O4)n2)cc(OC)c1OC` [R406]: the “effect on cells with elevated Syk Y525/Y526 phosphorylation” value in [4] is “induces apoptosis and blocks proliferation”.
As for pervanadate [reference compound], the “effect on phosphorylation of Abl biosensor” value in data set [2] (K562 cells, 10 μM imatinib or 1 μM pervanadate, 5, 30, 60 min) is listed as “stabilized”. Also, in data set [5], the “phosphorylated biosensor peptide detected” value is given as “higher levels”.
Take “GGDEDDNDEVAYQAPFEDGGKbiotinGG (GGDEDDNDEVAYQAPFEDGGK(Biotin)GG) [ABStide, Abl artificial substrate peptide]”: the “substrate specificity Abl against Hck” value in [6] is on record as “specific for Abl”.
For orientation: Kd means the concentration at which binding is half-saturated. Turning to “pSFAStideA [Phosphorylated form of SFAStide-A]”, the dissociation constant Kd in data set [7] (setting [13]) was found to be 0.77 µM.
The same measure, in the same setting: the result for “GGDNEGDVYDFVEDGGKbiotin (GGDNEGDVYDFVEDGGK(Biotin)GG) [SFAStideB, Src family artificial substrate peptide B]” reads 2.5 µM.
For the molecule GGEEDEDIYEELDEPGGKbiotinGG [SFAStide-A], the “phosphorylation of peptide by Lyn” value in data set [8] is reported as “phosphorylate SFAStide-A efficiently”. Further, in data set [9], the “phosphorylation of peptide by Syk” value was “will not”. For the same molecule, the “phosphorylation of peptide by Abl” value in data set [10] is “will not”. Besides, the “phosphorylation of peptide by Src” value in data set [11] is “phosphorylate SFAStide-A efficiently”. Also, the equilibrium dissociation constant (Kd) in data set [7] (setting [13]) stood at 3.93 µM.
As to DEEDYEEPDEP [SAStide], the “phosphorylation of peptide by Lyn” value in data set [8] was “none of which produced any significant signal”. For the same molecule, the “phosphorylation of peptide by Syk” value in data set [9] is recorded as “phosphorylated”. For the same molecule, in data set [10], the “phosphorylation of peptide by Abl” value is listed as “none of which produced any significant signal”. The “phosphorylation of peptide by Src” value in data set [11] is recorded as “none of which produced any significant signal”. The “toxicity of peptide to cells” value in data set [12] is “no toxicity was observed”. The Kd in data set [7] (read-out: Kd of 1:1 peptide-terbium complex) came out at 7.64 ± 0.32 µM.
